Assay results: paper PMC6160931, “Processing Impact on Performance of Solid Dispersions” (Pharmaceutics, 2018)
Values after ≈ are worked out from the molar mass of the structure shown. Structures can show the parent of a compound that is named as a salt. Where two headings read alike, the source gives them in different places.

Columns and labels:
Assay type in all cases: physicochemical
Log P (free base) = assay: Log P (free base)
Source text: (§1) Table 1 Physical/chemical properties of MK-A.

[1] = Solubility in H2O, SGF and FaSSIF
Source text: as §1

[2] = Solid-state chemical/physical stability of drug forms; conditions: chemical and physical
Source text: as §1

[3] = Chemical stability under accelerated conditions (% area)
Experimental: The stability of various formulations of MK-A was evaluated under accelerated conditions (Table 4). Levels of potency reduction right after the solid dispersion preparation were 1.7% and 4.6% for spray drying and hot melt extrusion, respectively. The higher potency reduction in HME was attributed to the higher processing temperature of the HME process (~140 °C) at which thermal degradation of the drug occurred. The potency of the amorphous form of active was further reduced after 2 weeks storage at 40 °C/75% relative humidity (RH) conditions in closed glass vials by up to as much as 8.5% loss of potency in the solid dispersion via HME.

[4] = Fasted Simulated Small Intestine Fluid (FaSSIF)

Structure (SMILES) | logP (Log P (free base)) | solubility [1, 4] [mg/mL] | solubility ([1]; simulated gastric fluid (SGF), simulated gastric fluid, Simulated Gastric Fluid (SGF), read-out: Solubility) [mg/mL] | solubility ([1]; water, pH 3.5, water, H2O (pH = 3.5), read-out: Solubility) [mg/mL] | Stability [2] | Log P (free base) (Log P (free base)) | solubility ([1]; Simulated Gastric Fluid (SGF)) [mg/mL] | solubility ([1]; water, pH 7.3, water, H2O (pH = 7.3), read-out: Solubility) [mg/mL] | 2 Weeks at 40 °C/75% RH Closed (% Area) ([3]; 2 weeks, 40 °C/75% RH, closed glass vials) | Initial (% Area) ([3]; initial, after preparation)
CS[C@@]1(C(=O)Nc2ccc3[nH]nc(-c4ccc(OC(C)C)nc4)c3c2)CCN(CC(=O)N2CC=C(c3ccc(-c4ncn(C)n4)cc3)CC2)C1 [MK-A HCl salt] | 4.5 | 0.021 | 0.525 | 0.661 | Chemically stable in the solid-state; Physically stable at various temperatures and humidity conditions but sensitive to mechanical stress | – | – | – | – | –
CS[C@@]1(C(=O)Nc2ccc3[nH]nc(-c4ccc(OC(C)C)nc4)c3c2)CCN(CC(=O)N2CC=C(c3ccc(-c4ncn(C)n4)cc3)CC2)C1 [MK-A free base] | – | 0.002 (≈ 2.89 µM) | – | – | Chemically and physically stable | 4.5 | 0.907 (≈ 1310 µM) | 0.0003 (≈ 0.434 µM) | 98.8 | 98.8
